The values below are quoted from earlier work in patent publication US7261907B2, “Compositions for the treatment of neurological disorders” (priority 2001, dated 2007).

Structures can show the parent of a compound that is named as a salt.

For the data set, the system named is nicotine and cocaine addiction. Conditions: in vivo.

As to `CC(NC(C)(C)C)C(=O)c1cccc(Cl)c1` (stereo not shown) [bupropion hydrochloride], the “effectiveness in treating nicotine and cocaine addiction” value is “moderately effective”.
